# US7074789B2, “Kinase inhibitors” (Amgen Inc., priority 1999, dated 2006)
# Columns and labels:
# Type in all cases: biochemical
# IGFR-1 = target: T1, IGFR-1 (Homo sapiens, UniProt P08069); experiment: Kinase inhibition assay (33P transfer), IGFR-1; conditions: Table 2, kinase inhibition class
# T1 construct: Kinases are expressed as either kinase domains or full length constructs; made in house
# Zap-70 = target: T2, Zap-70 (Homo sapiens, UniProt P43403); experiment: Kinase inhibition assay (33P transfer), Zap-70; conditions: Table 3; read-out: Zap-1
# T2 construct: Kinases are expressed as either kinase domains or full length constructs; made in house
# T2 sequence (P43403 1-619): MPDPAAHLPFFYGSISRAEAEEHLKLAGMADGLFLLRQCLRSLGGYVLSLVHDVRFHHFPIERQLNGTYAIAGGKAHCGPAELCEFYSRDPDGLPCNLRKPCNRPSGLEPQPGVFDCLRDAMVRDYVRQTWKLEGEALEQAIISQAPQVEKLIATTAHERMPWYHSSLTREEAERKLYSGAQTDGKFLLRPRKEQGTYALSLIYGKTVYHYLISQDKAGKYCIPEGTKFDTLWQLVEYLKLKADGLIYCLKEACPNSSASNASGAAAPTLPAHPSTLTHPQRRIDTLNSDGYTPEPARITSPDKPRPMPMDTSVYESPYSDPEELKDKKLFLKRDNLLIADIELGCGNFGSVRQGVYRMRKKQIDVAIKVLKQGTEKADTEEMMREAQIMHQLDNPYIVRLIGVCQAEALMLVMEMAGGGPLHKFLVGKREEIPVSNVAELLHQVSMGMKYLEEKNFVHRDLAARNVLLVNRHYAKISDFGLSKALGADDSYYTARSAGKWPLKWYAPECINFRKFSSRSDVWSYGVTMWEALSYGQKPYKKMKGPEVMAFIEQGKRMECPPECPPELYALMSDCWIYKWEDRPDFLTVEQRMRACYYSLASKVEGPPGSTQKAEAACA
# Procedure, shortened: (§1)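 Activity was read as 33P incorporation, counted by liquid scintillation after a 0.5% phosphoric acid wash, into poly(Glu,Tyr) 4:1 or poly(Arg,Ser) 3:1 substrates coated on plates. Enzymes were tagged (GST or polyHis) kinase domains or full-length proteins from bacterial or insect-cell expression, sometimes with regulatory polypeptides.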
# Kdr = target: T3, Kdr (Homo sapiens, UniProt P35968); experiment: Kinase inhibition assay (33P transfer), Kdr; conditions: Table 3; read-out: KDR-1
# T3 construct: Kinases are expressed as either kinase domains or full length constructs; made in house
# Procedure, shortened: as §1
# c-Met = target: T4, c-Met (Homo sapiens, UniProt P08581); experiment: Kinase inhibition assay (33P transfer), c-Met; conditions: Table 2, kinase inhibition class; read-out: Met-1
# T4 construct: Kinases are expressed as either kinase domains or full length constructs; made in house
# Procedure, shortened: (§2)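 Steps: coat wells with poly(Glu,Tyr) 4:1 or poly(Arg,Ser) 3:1; add purified kinase, [33P]ATP and inhibitor; incubate; wash with 0.5% phosphoric acid; add liquid scintillant; count. IC50 corresponds to half-maximal reduction of bound 33P.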
# Lck = target: T5, Lck (Homo sapiens, UniProt P06239); experiment: Kinase inhibition assay (33P transfer), Lck; conditions: Table 3; read-out: Lck-1
# T5 construct: Kinases are expressed as either kinase domains or full length constructs; made in house
# Procedure, shortened: as §1
# AKT = target: T6, AKT (Homo sapiens, UniProt Q9Y243); experiment: Kinase inhibition assay (33P transfer), AKT; conditions: Table 2, kinase inhibition class; read-out: AKT3-1
# T6 construct: Kinases are expressed as either kinase domains or full length constructs; made in house
# Procedure, shortened: as §1
# EGFR = target: T7, EGFR (Homo sapiens, UniProt P00533); experiment: Kinase inhibition assay (33P transfer), EGFR; conditions: Table 2, kinase inhibition class; read-out: EGFR-1
# T7 construct: Kinases are expressed as either kinase domains or full length constructs; made in house
# Procedure, shortened: as §2
# Tek = target: T8, Tek (Homo sapiens, UniProt Q02763); experiment: Kinase inhibition assay (33P transfer), Tek; conditions: read-out: Tek-1
# T8 construct: Kinases are expressed as either kinase domains or full length constructs; made in house
# Procedure, shortened: as §2
# EPHB4 = target: T9, EPHB4 (Homo sapiens, UniProt P54760); experiment: Kinase inhibition assay (33P transfer), EPHB4; conditions: read-out: EPHB4-1
# T9 construct: Kinases are expressed as either kinase domains or full length constructs; made in house
# T9 sequence (P54760 16-987): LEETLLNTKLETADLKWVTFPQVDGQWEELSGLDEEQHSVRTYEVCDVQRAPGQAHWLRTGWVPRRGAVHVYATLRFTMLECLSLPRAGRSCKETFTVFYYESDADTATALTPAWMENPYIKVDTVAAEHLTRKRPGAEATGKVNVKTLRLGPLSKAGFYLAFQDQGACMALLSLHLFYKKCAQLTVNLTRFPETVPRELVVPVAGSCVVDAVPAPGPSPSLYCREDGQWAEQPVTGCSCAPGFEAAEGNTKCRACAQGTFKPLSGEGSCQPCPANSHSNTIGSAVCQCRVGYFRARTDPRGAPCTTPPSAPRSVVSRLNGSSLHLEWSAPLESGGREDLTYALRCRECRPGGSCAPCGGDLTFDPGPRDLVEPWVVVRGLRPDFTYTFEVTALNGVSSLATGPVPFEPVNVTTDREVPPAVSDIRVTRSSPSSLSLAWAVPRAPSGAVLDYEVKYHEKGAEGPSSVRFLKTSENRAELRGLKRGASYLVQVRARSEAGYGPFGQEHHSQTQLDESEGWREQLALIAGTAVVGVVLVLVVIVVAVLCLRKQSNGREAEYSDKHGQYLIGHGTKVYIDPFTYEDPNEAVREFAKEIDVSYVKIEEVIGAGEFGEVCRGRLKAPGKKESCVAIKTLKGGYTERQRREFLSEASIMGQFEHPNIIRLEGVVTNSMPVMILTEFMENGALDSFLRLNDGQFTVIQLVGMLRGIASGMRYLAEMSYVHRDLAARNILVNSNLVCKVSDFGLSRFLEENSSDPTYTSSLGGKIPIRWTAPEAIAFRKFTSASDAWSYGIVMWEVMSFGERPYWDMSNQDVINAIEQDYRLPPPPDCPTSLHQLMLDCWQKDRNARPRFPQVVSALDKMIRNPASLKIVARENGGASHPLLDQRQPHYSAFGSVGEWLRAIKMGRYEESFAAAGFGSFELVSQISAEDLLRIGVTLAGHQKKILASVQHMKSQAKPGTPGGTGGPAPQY
# Itk = target: T10, Itk (Homo sapiens, UniProt Q08881); experiment: Kinase inhibition assay (33P transfer), Itk; conditions: Table 3; read-out: Itk-1
# T10 construct: Kinases are expressed as either kinase domains or full length constructs; made in house
# T10 sequence (Q08881 1-620): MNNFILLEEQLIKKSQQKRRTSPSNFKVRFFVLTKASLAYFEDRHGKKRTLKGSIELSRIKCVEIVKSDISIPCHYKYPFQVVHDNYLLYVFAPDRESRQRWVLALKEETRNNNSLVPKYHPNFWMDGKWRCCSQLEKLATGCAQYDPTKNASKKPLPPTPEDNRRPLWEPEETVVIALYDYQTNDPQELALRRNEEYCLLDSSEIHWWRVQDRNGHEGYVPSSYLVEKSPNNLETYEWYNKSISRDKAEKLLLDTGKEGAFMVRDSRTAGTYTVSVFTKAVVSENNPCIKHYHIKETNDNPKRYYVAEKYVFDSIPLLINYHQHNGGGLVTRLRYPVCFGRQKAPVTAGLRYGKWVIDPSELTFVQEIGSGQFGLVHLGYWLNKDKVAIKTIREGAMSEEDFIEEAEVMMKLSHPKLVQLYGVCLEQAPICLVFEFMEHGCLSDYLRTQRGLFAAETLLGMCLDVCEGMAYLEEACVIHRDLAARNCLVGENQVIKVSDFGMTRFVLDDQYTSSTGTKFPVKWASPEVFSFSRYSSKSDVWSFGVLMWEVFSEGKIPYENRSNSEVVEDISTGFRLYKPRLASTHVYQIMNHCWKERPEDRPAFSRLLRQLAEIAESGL
# Procedure, shortened: as §2
# T4 sequence (P08581 25-1390): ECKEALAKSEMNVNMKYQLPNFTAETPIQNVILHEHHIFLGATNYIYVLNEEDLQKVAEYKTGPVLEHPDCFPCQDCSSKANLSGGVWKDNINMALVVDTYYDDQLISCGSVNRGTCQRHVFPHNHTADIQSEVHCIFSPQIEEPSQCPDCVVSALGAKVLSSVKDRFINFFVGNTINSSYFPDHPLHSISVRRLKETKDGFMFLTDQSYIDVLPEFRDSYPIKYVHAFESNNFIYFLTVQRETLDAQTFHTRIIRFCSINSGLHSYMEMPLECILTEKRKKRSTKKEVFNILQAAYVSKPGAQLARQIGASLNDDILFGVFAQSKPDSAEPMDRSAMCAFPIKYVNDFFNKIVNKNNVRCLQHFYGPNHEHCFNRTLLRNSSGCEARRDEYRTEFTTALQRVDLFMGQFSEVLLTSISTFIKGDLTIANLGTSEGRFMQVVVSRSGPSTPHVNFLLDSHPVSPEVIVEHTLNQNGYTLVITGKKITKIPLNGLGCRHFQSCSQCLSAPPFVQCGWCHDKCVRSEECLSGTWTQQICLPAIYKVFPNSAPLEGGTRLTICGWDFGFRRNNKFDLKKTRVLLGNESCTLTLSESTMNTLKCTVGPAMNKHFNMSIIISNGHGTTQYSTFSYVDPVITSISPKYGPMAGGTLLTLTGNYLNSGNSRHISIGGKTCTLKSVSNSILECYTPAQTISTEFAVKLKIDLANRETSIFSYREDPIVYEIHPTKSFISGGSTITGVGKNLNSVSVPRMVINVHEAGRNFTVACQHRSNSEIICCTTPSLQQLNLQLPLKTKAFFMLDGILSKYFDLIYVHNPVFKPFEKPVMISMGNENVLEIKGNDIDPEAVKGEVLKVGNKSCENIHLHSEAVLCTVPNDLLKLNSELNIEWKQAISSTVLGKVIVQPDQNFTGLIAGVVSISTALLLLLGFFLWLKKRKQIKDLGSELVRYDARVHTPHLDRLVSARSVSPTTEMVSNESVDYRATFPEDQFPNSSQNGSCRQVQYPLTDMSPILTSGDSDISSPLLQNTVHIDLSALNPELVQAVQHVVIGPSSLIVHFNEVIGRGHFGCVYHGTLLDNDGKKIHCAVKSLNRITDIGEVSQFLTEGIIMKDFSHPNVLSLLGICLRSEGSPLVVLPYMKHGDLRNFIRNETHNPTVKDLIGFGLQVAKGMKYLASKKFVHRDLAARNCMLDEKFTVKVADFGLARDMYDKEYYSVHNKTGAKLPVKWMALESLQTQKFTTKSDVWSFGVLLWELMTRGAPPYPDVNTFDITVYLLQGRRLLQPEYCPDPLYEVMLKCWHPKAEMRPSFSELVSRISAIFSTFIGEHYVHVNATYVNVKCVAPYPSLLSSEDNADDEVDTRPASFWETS
# T8 sequence (Q02763 23-1124, species assumed): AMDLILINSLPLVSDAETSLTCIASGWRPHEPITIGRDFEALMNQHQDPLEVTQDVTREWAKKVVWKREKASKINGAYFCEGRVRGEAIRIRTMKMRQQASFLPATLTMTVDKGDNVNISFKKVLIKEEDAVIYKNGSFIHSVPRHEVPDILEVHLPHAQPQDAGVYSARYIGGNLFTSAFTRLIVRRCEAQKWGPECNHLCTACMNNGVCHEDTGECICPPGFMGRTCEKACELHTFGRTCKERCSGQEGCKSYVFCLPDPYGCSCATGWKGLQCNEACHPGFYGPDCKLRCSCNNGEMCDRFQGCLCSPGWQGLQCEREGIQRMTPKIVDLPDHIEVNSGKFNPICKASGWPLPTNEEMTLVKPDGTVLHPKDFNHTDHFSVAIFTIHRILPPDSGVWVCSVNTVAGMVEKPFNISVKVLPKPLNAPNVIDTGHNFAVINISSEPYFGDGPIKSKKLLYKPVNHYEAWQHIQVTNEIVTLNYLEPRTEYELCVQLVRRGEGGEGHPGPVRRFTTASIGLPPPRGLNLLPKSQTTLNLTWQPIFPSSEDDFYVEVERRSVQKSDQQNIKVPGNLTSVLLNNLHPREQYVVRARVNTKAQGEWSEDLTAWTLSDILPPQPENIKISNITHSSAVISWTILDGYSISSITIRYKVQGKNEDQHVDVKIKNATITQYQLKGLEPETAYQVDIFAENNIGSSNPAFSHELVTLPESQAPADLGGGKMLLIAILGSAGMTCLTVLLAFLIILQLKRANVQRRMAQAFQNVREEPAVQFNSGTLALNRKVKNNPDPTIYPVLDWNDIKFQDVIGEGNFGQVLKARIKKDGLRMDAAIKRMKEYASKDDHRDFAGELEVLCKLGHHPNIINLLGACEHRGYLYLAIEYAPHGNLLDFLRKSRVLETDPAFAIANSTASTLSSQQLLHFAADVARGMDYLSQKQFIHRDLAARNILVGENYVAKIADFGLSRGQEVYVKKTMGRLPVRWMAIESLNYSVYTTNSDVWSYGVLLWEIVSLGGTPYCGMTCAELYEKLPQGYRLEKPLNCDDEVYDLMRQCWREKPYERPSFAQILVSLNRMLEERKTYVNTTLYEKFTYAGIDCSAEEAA
# T3 sequence (P35968 20-1356, species assumed): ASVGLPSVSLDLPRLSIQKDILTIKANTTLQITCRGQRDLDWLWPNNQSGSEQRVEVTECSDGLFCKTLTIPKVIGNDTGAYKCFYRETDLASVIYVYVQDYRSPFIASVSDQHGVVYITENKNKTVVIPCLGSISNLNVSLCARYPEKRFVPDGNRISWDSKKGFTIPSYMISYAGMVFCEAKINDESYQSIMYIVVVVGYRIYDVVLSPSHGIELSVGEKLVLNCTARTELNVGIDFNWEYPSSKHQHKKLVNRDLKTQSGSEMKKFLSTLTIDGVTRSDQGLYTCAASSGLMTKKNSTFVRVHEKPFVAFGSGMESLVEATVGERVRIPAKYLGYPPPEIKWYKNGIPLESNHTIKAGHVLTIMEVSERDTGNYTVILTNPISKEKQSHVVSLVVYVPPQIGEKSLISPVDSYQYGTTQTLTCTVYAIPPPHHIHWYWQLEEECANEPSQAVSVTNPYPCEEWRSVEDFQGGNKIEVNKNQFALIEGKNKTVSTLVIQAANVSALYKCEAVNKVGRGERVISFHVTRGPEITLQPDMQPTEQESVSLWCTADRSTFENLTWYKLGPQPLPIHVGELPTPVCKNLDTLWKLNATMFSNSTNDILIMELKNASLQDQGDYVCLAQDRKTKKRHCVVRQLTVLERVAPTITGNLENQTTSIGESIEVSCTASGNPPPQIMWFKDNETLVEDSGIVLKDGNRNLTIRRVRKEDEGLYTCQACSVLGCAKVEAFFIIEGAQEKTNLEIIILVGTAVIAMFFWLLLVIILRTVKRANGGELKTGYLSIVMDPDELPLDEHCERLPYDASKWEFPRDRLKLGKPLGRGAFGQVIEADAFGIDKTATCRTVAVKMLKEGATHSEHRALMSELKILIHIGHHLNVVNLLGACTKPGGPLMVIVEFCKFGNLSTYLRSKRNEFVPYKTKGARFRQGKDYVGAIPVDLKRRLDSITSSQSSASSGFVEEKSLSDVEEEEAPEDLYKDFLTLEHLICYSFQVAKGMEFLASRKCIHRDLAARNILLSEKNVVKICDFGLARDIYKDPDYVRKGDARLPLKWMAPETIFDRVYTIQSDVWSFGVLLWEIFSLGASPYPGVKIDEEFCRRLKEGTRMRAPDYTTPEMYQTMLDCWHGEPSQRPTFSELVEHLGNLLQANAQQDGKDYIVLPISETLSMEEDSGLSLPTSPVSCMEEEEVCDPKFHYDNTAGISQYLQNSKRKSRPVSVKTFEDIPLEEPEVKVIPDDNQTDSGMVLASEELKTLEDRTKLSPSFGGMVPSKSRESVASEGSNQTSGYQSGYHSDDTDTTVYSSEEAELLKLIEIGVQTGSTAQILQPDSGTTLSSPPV
# T5 sequence (P06239 whole entry, species assumed, the tested form may be a part): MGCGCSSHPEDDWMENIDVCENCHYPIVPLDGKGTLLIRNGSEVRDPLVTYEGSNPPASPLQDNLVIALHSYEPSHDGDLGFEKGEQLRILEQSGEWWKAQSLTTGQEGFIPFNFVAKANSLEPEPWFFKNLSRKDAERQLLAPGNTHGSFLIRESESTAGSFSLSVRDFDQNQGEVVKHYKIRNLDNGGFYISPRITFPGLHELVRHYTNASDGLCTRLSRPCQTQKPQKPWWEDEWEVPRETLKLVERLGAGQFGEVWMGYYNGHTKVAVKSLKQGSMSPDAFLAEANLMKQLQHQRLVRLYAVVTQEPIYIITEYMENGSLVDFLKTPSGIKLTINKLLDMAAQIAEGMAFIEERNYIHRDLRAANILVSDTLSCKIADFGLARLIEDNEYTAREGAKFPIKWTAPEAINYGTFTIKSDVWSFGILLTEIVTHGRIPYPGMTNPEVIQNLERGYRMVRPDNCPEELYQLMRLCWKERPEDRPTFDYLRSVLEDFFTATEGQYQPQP
# T6 sequence (Q9Y243 whole entry, the tested form may be a part): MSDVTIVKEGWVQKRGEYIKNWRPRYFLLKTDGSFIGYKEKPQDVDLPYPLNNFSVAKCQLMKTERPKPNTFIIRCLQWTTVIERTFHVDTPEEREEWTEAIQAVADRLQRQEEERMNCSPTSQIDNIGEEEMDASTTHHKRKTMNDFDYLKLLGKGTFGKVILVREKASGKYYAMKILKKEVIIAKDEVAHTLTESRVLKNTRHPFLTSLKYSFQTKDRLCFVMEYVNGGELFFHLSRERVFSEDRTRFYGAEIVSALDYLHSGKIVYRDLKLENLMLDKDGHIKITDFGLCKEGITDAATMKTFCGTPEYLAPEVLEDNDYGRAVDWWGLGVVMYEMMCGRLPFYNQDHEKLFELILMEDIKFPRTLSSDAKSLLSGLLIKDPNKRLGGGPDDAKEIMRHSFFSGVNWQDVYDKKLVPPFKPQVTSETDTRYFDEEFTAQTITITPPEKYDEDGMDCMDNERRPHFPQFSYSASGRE
Structure (SMILES),IC50 (IGFR-1) [µM],IC50 (Zap-70) [µM],IC50 (Kdr) [µM],IC50 (c-Met) [µM],IC50 (Lck) [µM],IC50 (AKT) [µM],IC50 (EGFR) [µM],IC50 (Tek) [µM],IC50 (EPHB4) [µM],IC50 (Itk) [µM]
COc1cc(Nc2ncnc(Nc3ccc(O)cc3C)n2)cc(OC)c1OC [Compound 927],> 11.7,> 11.7,1.04 to 6.26,> 11.7,6.26 to 9.13,> 11.7,6.26 to 9.13,> 11.7,> 11.7,> 11.7
COc1cc(Nc2ncnc(NN3CCOCC3)n2)cc(OC)c1OC [Compound 103],6.62 to 9.66,> 12.4,> 12.4,> 12.4,> 12.4,1.1 to 6.62,> 12.4,> 12.4,1.1 to 6.62,> 12.4
c1ccc(-c2ncnc(Nc3ccc(OCCCN4CCOCC4)cc3)n2)cc1 [Compound 154],1.02 to 6.13,> 11.5,1.02 to 6.13,> 11.5,> 11.5,> 11.5,> 11.5,> 11.5,8.94 to 11.5,> 11.5
COc1cc(Nc2ncnc(Nc3cccc(Oc4ccccc4)c3)n2)cc(OC)c1OC [Compound 105],> 10.1,> 10.1,0.898 to 5.39,0.898 to 5.39,> 10.1,> 10.1,0.898 to 5.39,> 10.1,> 10.1,> 10.1
COc1cc(Nc2ncnc(Nc3[nH]ncc3-c3ccccc3)n2)cc(OC)c1OC [Compound 369],> 10.7,> 10.7,> 10.7,> 10.7,5.72 to 8.34,> 10.7,> 10.7,> 10.7,> 10.7,8.34 to 10.7
COc1cc(Nc2ncnc(-c3ccc(F)cc3)n2)cc(OC)c1OC [Compound 222],> 12.6,> 12.6,9.82 to 12.6,> 12.6,> 12.6,> 12.6,> 12.6,> 12.6,> 12.6,> 12.6
COc1cc(Nc2ncnc(N(Cc3ccccc3)c3nc4ccccc4[nH]3)n2)cc(OC)c1OC [Compound 373],> 9.31,> 9.31,0.827 to 4.96,> 9.31,> 9.31,> 9.31,4.96 to 7.24,0.827 to 4.96,> 9.31,> 9.31

# Further lines, results first:
IC50 (IGFR-1) [µM],IC50 (Zap-70) [µM],IC50 (Kdr) [µM],IC50 (c-Met) [µM],IC50 (Lck) [µM],IC50 (AKT) [µM],IC50 (EGFR) [µM],IC50 (Tek) [µM],IC50 (EPHB4) [µM],IC50 (Itk) [µM],Structure (SMILES)
> 9.81,> 9.81,> 9.81,> 9.81,> 9.81,> 9.81,> 9.81,> 9.81,> 9.81,> 9.81,COc1cc(Nc2ncnc(Nc3ccc(NCc4ccccc4)cc3)n2)cc(OC)c1OC [Compound 93]
> 9.71,> 9.71,7.55 to 9.71,> 9.71,> 9.71,> 9.71,> 9.71,> 9.71,> 9.71,> 9.71,COc1cc(Nc2ncnc(Nc3c(C)n(C)n(-c4ccccc4)c3=O)n2)cc(OC)c1OC [Compound 256]
0.831 to 4.98,> 9.35,7.27 to 9.35,> 9.35,0.831 to 4.98,> 9.35,0.831 to 4.98,> 9.35,> 9.35,> 9.35,COc1ccc(Nc2ncnc(N(CC(=O)OC(C)(C)C)c3ccc4c(c3)OCO4)n2)cc1OC [Compound 310]
5.59 to 8.15,0.931 to 5.59,0.931 to 5.59,> 10.5,> 10.5,5.59 to 8.15,8.15 to 10.5,> 10.5,0.931 to 5.59,> 10.5,COc1cc(Nc2ncnc(Nc3ccc(-c4ccccc4)cc3)n2)cc(OC)c1OC [Compound 100]
1.08 to 6.46,> 12.1,1.08 to 6.46,> 12.1,1.08 to 6.46,> 12.1,1.08 to 6.46,1.08 to 6.46,9.42 to 12.1,> 12.1,COc1cc(Nc2ncnc(Nc3ccc(F)cc3)n2)cc(OC)c1OC [Compound 303]
6.23 to 9.08,1.04 to 6.23,1.04 to 6.23,1.04 to 6.23,9.08 to 11.7,1.04 to 6.23,1.04 to 6.23,6.23 to 9.08,1.04 to 6.23,> 11.7,Oc1ccc(Nc2ncnc(Nc3ccc(OCc4ccccc4)cc3)n2)cc1 [Compound 158]
> 10.6,> 10.6,0.942 to 5.65,> 10.6,0.942 to 5.65,> 10.6,> 10.6,> 10.6,> 10.6,> 10.6,COc1cc(Nc2ncnc(Nc3ccc(N(C)C(C)=O)cc3)n2)cc(OC)c1OC [Compound 81]
0.934 to 5.6,> 10.5,0.934 to 5.6,0.934 to 5.6,0.934 to 5.6,> 10.5,> 10.5,8.17 to 10.5,5.6 to 8.17,> 10.5,COc1cc(Nc2ncnc(Nc3nc4ccc(F)cc4s3)n2)cc(OC)c1OC [Compound 317]
> 8.8,> 8.8,6.84 to 8.8,> 8.8,6.84 to 8.8,> 8.8,4.69 to 6.84,> 8.8,> 8.8,> 8.8,COc1cc(Nc2ncnc(N(CC(=O)OC(C)(C)C)c3ccc4c(c3)OCO4)n2)cc(OC)c1OC [Compound 309]
